“And” between values parts separate entries of the source, which are not always exact repeats. Equal entries are not always repeated. Toxic doses and inconclusive results are not listed. The calls were made as follows: active = survival T/C of 150% or more; inactive = T/C below 125% in these data. Peptide text beside a SMILES is read from it.
System: P388 leukemia ip, CD2F1 mice, survival T/C
Assay: NCI In Vivo Anticancer Drug Screen. Data for tumor model P388 Leukemia (intraperitoneal) in CD2F1 (CDF1) mice
Details: endpoint: median survival time, higher = longer survival
Outline: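 Mice carrying the transplanted tumor received test compound or vehicle. Survival was recorded in each group, and the value is the treated-group measurement divided by that of the vehicle-treated control group.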

[1] = dose: 50.0 mg/kg/injection, schedule: Q01DX005 (ip), vehicle: Klucel (hydroxypropylcellulose) (HPC)
[2] = dose: 100.0 mg/kg/injection, schedule: Q01DX005 (ip), vehicle: Klucel (hydroxypropylcellulose) (HPC)
[3] = dose: 200.0 mg/kg/injection, schedule: Q01DX005 (ip), vehicle: Klucel (hydroxypropylcellulose) (HPC)
[4] = dose: 60.0 mg/kg/injection, schedule: Q01DX005 (ip), vehicle: saline
[5] = dose: 120.0 mg/kg/injection, schedule: Q01DX005 (ip), vehicle: saline
[6] = dose: 50.0 mg/kg/injection, schedule: Q01DX009 (ip), vehicle: Klucel (hydroxypropylcellulose) (HPC)
[7] = dose: 100.0 mg/kg/injection, schedule: Q01DX009 (ip), vehicle: Klucel (hydroxypropylcellulose) (HPC)
[8] = dose: 200.0 mg/kg/injection, schedule: Q01DX009 (ip), vehicle: Klucel (hydroxypropylcellulose) (HPC)
[9] = dose: 50.0 mg/kg/injection, schedule: Q01DX009 (ip), vehicle: saline
[10] = dose: 100.0 mg/kg/injection, schedule: Q01DX009 (ip), vehicle: saline

Measured: T/C

CC(NC(=O)C(Cc1ccccc1)NC(=O)C(N)CCCN=C(N)N)C(=O)O (stereo not drawn) (H-Arg-Phe-Ala-OH; configuration not given here)
inactive: dose: 50.0 mg/kg/injection, schedule: Q01DX005 (ip), vehicle: saline 102 % of control | dose: 100.0 mg/kg/injection, schedule: Q01DX005 (ip), vehicle: saline 101 % of control | dose: 200.0 mg/kg/injection, schedule: Q01DX005 (ip), vehicle: saline 101 % of control

O=c1[nH]nc(OCCO)c2ccccc12
inactive: [1] 100 % of control | [2] 98 % of control | [3] 99 % of control

COc1ccc2ccc3c4c(c(=O)[nH]c3c2n1)CCC4
inactive: dose: 100.0 mg/kg/injection, schedule: Q04DX003 (ip), vehicle: saline 101 % of control | dose: 200.0 mg/kg/injection, schedule: Q04DX003 (ip), vehicle: saline 92 % of control | dose: 400.0 mg/kg/injection, schedule: Q04DX003 (ip), vehicle: saline 105 % of control

CCCCC(CC)COCCCNCC(=O)O (configuration not stated)
inactive: [4] 102 % of control | [5] 107 % of control

COC(=O)/C=C1\C(=O)OC(C)(C)C1C (configuration not stated)
inactive: [6] 96 % of control | [7] 98 % of control | [8] 103 % of control

CCn1c(=O)c2[nH]c(Cl)nc2n(CCCOC)c1=O
inactive: dose: 100.0 mg/kg/injection, schedule: Q04DX002 (ip), vehicle: Klucel (hydroxypropylcellulose) (HPC) 101 % of control | dose: 200.0 mg/kg/injection, schedule: Q04DX002 (ip), vehicle: Klucel (hydroxypropylcellulose) (HPC) 95 % of control | dose: 400.0 mg/kg/injection, schedule: Q04DX002 (ip), vehicle: Klucel (hydroxypropylcellulose) (HPC) 87 % of control

CCCCc1ccc2nc(C)cc(N/N=C/c3ccc4c(c3)OCO4)c2c1
inactive: dose: 12.5 mg/kg/injection, schedule: Q01DX005 (ip), vehicle: Klucel (hydroxypropylcellulose) (HPC) 94 % of control | dose: 25.0 mg/kg/injection, schedule: Q01DX005 (ip), vehicle: Klucel (hydroxypropylcellulose) (HPC) 100 % of control | [1] 92 % of control and 94 % of control | [3] 92 % of control

CS(=O)(=O)Oc1ccc[nH]c1=O
inactive: dose: 6.25 mg/kg/injection, schedule: Q01DX009 (ip), vehicle: saline 110 % of control | dose: 12.5 mg/kg/injection, schedule: Q01DX009 (ip), vehicle: Klucel (hydroxypropylcellulose) (HPC) 93 % of control | dose: 12.5 mg/kg/injection, schedule: Q01DX009 (ip), vehicle: saline 121 % of control | dose: 25.0 mg/kg/injection, schedule: Q01DX009 (ip), vehicle: Klucel (hydroxypropylcellulose) (HPC) 103 % of control | dose: 25.0 mg/kg/injection, schedule: Q01DX009 (ip), vehicle: saline 115 % of control | [6] 104 % of control | [9] 118 % of control | [7] 97 % of control | [10] 109 % of control | [8] 98 % of control | dose: 400.0 mg/kg/injection, schedule: Q01DX009 (ip), vehicle: Klucel (hydroxypropylcellulose) (HPC) 97 % of control

O=C1CC(c2ccccc2)C(c2ccccc2)C1 (configuration not stated)
inactive: [6] 94 % of control | [7] 97 % of control | [8] 93 % of control

CC(=O)OC1=C2C(C)(C)OC3CC(=O)OCC23C2CCC3(C)C(c4ccoc4)OC(=O)C4OC43C2(C)C1=O (configuration not stated)
inactive: dose: 0.5 mg/kg/injection, schedule: Q01DX009 (ip), vehicle: saline + alcohol 113 % of control | dose: 1.0 mg/kg/injection, schedule: Q01DX009 (ip), vehicle: saline + alcohol 110 % of control | dose: 2.0 mg/kg/injection, schedule: Q01DX009 (ip), vehicle: saline + alcohol 107 % of control | dose: 4.0 mg/kg/injection, schedule: Q01DX009 (ip), vehicle: saline + alcohol 101 % of control

C=C(C)/C([O-])=N/[N+](C)(C)CC(O)CCCCCCCCCCCC (configuration not stated)
inactive: dose: 1.25 mg/kg/injection, schedule: Q01DX009 (ip), vehicle: Klucel (hydroxypropylcellulose) (HPC) 104 % of control | dose: 2.5 mg/kg/injection, schedule: Q01DX005 (ip), vehicle: Klucel (hydroxypropylcellulose) (HPC) 100 % of control | dose: 2.5 mg/kg/injection, schedule: Q01DX009 (ip), vehicle: Klucel (hydroxypropylcellulose) (HPC) 96 % of control | dose: 5.0 mg/kg/injection, schedule: Q01DX005 (ip), vehicle: Klucel (hydroxypropylcellulose) (HPC) 101 % of control | dose: 10.0 mg/kg/injection, schedule: Q01DX005 (ip), vehicle: Klucel (hydroxypropylcellulose) (HPC) 100 % of control | dose: 10.0 mg/kg/injection, schedule: Q01DX009 (ip), vehicle: Klucel (hydroxypropylcellulose) (HPC) 91 % of control | dose: 20.0 mg/kg/injection, schedule: Q01DX005 (ip), vehicle: Klucel (hydroxypropylcellulose) (HPC) 101 % of control | dose: 40.0 mg/kg/injection, schedule: Q01DX005 (ip), vehicle: Klucel (hydroxypropylcellulose) (HPC) 92 % of control

O=C1CC(C2OCOC3COCOC32)CC(=O)N1 (configuration not stated)
inactive: dose: 60.0 mg/kg/injection, schedule: Q01DX005 (ip), vehicle: Klucel (hydroxypropylcellulose) (HPC) 111 % of control | dose: 120.0 mg/kg/injection, schedule: Q01DX005 (ip), vehicle: Klucel (hydroxypropylcellulose) (HPC) 109 % of control | dose: 240.0 mg/kg/injection, schedule: Q01DX005 (ip), vehicle: Klucel (hydroxypropylcellulose) (HPC) 100 % of control

COc1ccc(C(CN2CCOCC2)C(C)=O)cc1OC (configuration not stated)
inactive: [4] 101 % of control | [5] 101 % of control | dose: 240.0 mg/kg/injection, schedule: Q01DX005 (ip), vehicle: saline 101 % of control

COc1cc(/C=N/NC(=O)c2cccs2)cc(OC)c1OC
inactive: dose: 100.0 mg/kg/injection, schedule: Q01DX009 (ip), vehicle: saline with Tween-80 95 % of control | dose: 200.0 mg/kg/injection, schedule: Q01DX009 (ip), vehicle: saline with Tween-80 100 % of control | dose: 400.0 mg/kg/injection, schedule: Q01DX009 (ip), vehicle: saline with Tween-80 100 % of control

CCSSc1ccccc1C(=O)O
inactive: [1] 102 % of control | [2] 109 % of control | [3] 112 % of control

COc1cc(C#N)cc(OC)c1
inactive: dose: 25.0 mg/kg/injection, schedule: Q04DX003 (ip), vehicle: saline with Tween-80 109 % of control | dose: 50.0 mg/kg/injection, schedule: Q04DX003 (ip), vehicle: saline with Tween-80 100 % of control | dose: 100.0 mg/kg/injection, schedule: Q04DX003 (ip), vehicle: saline with Tween-80 100 % of control | dose: 200.0 mg/kg/injection, schedule: Q04DX003 (ip), vehicle: saline with Tween-80 100 % of control

c1ccc(-c2c(-c3ccccc3)[c+]2-c2ccccc2)cc1
inactive: dose: 100.0 mg/kg/injection, schedule: Q01DX001 (ip), vehicle: gum acacia 99 % of control | dose: 200.0 mg/kg/injection, schedule: Q01DX001 (ip), vehicle: gum acacia 99 % of control

CC(C)OC(=O)NC1CCC2CCCCC2C1 (configuration not stated)
inactive: [9] 102 % of control | [10] 102 % of control | dose: 200.0 mg/kg/injection, schedule: Q01DX009 (ip), vehicle: saline 100 % of control

c1nnc2c3c4c(sc3ncn12)CCCC4
inactive: dose: 50.0 mg/kg/injection, schedule: Q01DX005 (ip), vehicle: saline with Tween-80 97 % of control | dose: 100.0 mg/kg/injection, schedule: Q01DX005 (ip), vehicle: saline with Tween-80 91 % of control

CCCCC(NC(=O)OCc1ccccc1)C(=O)NC(Cc1c[nH]c2ccccc12)C(=O)O (configuration not stated)
inactive: [1] 95 % of control | [2] 101 % of control | [3] 92 % of control

FC(F)(F)c1ccc2c(c1)N(CCCN1CCN(CCCl)CC1)c1ccccc1S2
inactive: dose: 6.25 mg/kg/injection, schedule: Q04DX003 (ip), vehicle: saline 96 % of control | dose: 12.5 mg/kg/injection, schedule: Q04DX003 (ip), vehicle: saline 101 % of control | dose: 25.0 mg/kg/injection, schedule: Q04DX003 (ip), vehicle: saline 115 % of control

Cc1ccc2cccc(OC(=O)c3c(F)cccc3Cl)c2n1
inactive: [1] 99 % of control | [2] 96 % of control | [3] 99 % of control

CCCCC#CC(=O)O
inactive: [9] 103 % of control | [10] 94 % of control

O=C(O)CCCSC1=CC(=O)c2ccccc2C1=O
inactive: dose: 1.56 mg/kg/injection, schedule: Q04DX003 (ip), vehicle: DMSO 89 % of control | dose: 3.12 mg/kg/injection, schedule: Q04DX003 (ip), vehicle: DMSO 96 % of control | dose: 6.25 mg/kg/injection, schedule: Q04DX003 (ip), vehicle: DMSO 100 % of control and 93 % of control | dose: 12.5 mg/kg/injection, schedule: Q04DX003 (ip), vehicle: DMSO 100 % of control

CCCCN1C(=O)C2C3CCC(O3)C2C1=O (configuration not stated)
inactive: dose: 60.0 mg/kg/injection, schedule: Q01DX005 (ip), vehicle: saline with Tween-80 100 % of control | dose: 120.0 mg/kg/injection, schedule: Q01DX005 (ip), vehicle: saline with Tween-80 92 % of control
